Earlier results on three molecules are cited in patent US10500232B2, “Small molecule cellular reprogramming to generate neuronal cells” (The J. David Gladstone Institutes, a testamentary trust …, priority 2013, dated 2019).

The target of data set [1] is various mGlu receptors. To be noted: Ki depends on which receptor is bound; cited from earlier work.
Data set [2] has as its system mGlu(2) receptors. To be noted: rodent and human; cited from earlier work.
Data set [3] has as its system mGlu(3) receptors. To be noted: rodent and human; cited from earlier work.
For data set [4], the target named is mGlu4 (Homo sapiens, UniProt Q14833). To be noted: read-out: EC50 against mGlu4; cited from earlier work.
Chain of mGlu4 (Q14833 33-912): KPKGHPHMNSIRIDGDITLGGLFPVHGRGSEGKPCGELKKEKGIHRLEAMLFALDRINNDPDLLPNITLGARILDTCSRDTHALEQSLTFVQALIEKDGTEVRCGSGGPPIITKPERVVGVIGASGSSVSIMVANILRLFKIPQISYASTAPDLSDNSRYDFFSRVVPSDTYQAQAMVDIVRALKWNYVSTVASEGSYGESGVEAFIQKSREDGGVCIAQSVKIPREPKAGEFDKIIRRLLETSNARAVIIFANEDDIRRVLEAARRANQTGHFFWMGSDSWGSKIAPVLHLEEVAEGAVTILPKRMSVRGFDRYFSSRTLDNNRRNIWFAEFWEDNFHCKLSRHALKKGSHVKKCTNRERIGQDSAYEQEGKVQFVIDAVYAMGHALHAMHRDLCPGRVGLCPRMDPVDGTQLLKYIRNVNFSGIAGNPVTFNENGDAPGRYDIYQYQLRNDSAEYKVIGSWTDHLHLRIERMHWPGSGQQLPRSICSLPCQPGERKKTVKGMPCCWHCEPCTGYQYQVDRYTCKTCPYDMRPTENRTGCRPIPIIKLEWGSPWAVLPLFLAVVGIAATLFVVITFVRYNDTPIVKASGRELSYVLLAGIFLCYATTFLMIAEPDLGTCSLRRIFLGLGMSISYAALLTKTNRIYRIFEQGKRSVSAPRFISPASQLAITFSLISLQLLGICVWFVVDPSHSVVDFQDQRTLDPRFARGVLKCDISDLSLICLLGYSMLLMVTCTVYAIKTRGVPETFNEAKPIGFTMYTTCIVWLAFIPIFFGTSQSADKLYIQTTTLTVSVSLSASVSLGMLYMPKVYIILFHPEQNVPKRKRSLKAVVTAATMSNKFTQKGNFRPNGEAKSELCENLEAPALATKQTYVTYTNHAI

Broadly, the Ki is the dissociation constant of the complex between target and ligand, obtained from inhibition or displacement. On to `N[C@@]1(C(=O)O)COC2C1[C@H]2C(=O)O` (stereo partly drawn) [LY379268, (4R,6R)-4-amino-2-oxabicyclo[3.1.0]hexane-4,6-dicarboxylic acid], for which, in data set [1], the Ki was 2.7 to 100000 nM.
For the molecule `NC1(C(=O)O)CC(F)C2C(C(=O)O)C21` (stereo not shown) [LY459477, 2-amino-4-fluorobicyclo[3.1.0]hexane-2,6-dicarboxylic acid], in data set [2], the “potency for mGlu(2) receptors” value is 1 to 2 nM. For the same molecule, the “potency for mGlu(3) receptors” value in data set [3] is 1 to 2 nM.
As usually defined, the EC50 is the concentration giving half of the maximal effect. Take `COc1cc(NC(=O)c2ccccn2)ccc1Cl` [ML128, N-(4-chloro-3-methoxyphenyl)pyridine-2-carboxamide]: the EC50 in data set [4] is 200 to 2300 nM.
